Reference: patent US12195451B2 (priority 2015, dated 2025)

What was measured:
ICP0-null HSV-N212eGFP = type: cell-based, Herpes Simplex Virus type-1 (HSV-1)
[1] = test system: VSV-Maraba-MG1-eGFP virus; type: cell-based, Maraba MG-1
[2] = test system: virus-induced cellular genes; settings: gene expression microarrays; cited from earlier work
[3] = test system: adenovirus expressing firefly luciferase; type: cell-based, Adenovirus Serotype 5
[4] = test system: IFN-responsive U251 human glioma cells; settings: cited from earlier work
[5] = test system: adenovirus expressing firefly luciferase; assay: Adenovirus transduction in A549 cancer cells (MOI 0.1, luciferase luminescence); type: cell-based, Adenovirus Serotype 5; settings: pre-treated 2 hours at 21 uM to 120 or 160 uM, 40 hours post-infection
IFN-responsive promoter = settings: cited from earlier work
MVA-eGFP = type: cell-based, modified vaccine ankara (MVA); settings: human renal carcinoma (786-0) cells; infected after 4 hours, MOI 0.01; 48 h and 64 h after infection
[6] = test system: adeno-associated virus expressing firefly luciferase; type: cell-based, AAV serotype 6
[7] = test system: adenovirus expressing firefly luciferase; assay: Adenovirus transduction in normal mouse muscle tissue cores; type: cell-based, Adenovirus Serotype 5; settings: 10, 20 or 40 uM for 4 hours, 1×10^7 pfu/well, 36 hours post-infection
[8] = test system: adenovirus expressing firefly luciferase; assay: Adenovirus transduction in normal mouse brain tissue cores; type: cell-based, Adenovirus Serotype 5; settings: 10, 20 or 40 uM for 4 hours, 1×10^7 pfu/well, 36 hours post-infection
[9] = test system: Salmonella typhimurium strains TA98 and TA100
[10] = test system: Influenza H1N1 A/Puerto Rico/8/34 (PR8); type: cell-based
A/FM1 (H1N1) = test system: A/FM1 (H1N1); parameters: species or system Influenza A H1N1; settings: in vivo

| SMILES | HSV-1 replication (eGFP fluorescence and HSV titers) (ICP0-null HSV-N212eGFP) | adenovirus vector production (luciferase activity, fold increase vs untreated) [3] | Adenovirus transduction in cancer cells (fold increase luciferase luminescence vs adenovirus alone) [5] | MVA vaccine strain infection of cells (eGFP fluorescence) (MVA-eGFP) | adeno-associated virus vector production (luciferase activity, fold increase vs untreated) [6] | Adenovirus transduction in normal muscle tissue [7] | Adenovirus transduction in normal brain tissue [8] | further results |
| --- | --- | --- | --- | --- | --- | --- | --- | --- |
| COc1ccccc1CN1C(=O)C(Cl)=C(Cl)C1O (stereo not drawn) [CM01025, 3,4-Dichloro-5-hydroxy-1-(2-methoxy-benzyl)-1,5-dihydro-pyrrol-2-one] | enhance Herpes Simplex Virus type-1 (HSV-1) replication |  |  |  |  |  |  |  |
| O=C1OC(c2ccccc2)C(Cl)=C1Cl (stereo not drawn) [VSe1, 3,4-dichloro-5-phenyl-2,5-dihydrofuran-2-one, reference compound] | enhance Herpes Simplex Virus type-1 (HSV-1) replication | enhance the production | enhance Adenovirus transduction | can be enhanced | enhance the production |  |  | replication / spread of oncolytic virus MG1 (eGFP expression) [1]: enhance the replication; virus-induced cellular genes whose transcription is repressed [2]: > 95%; IFN-mediated protection of cells to VSVΔ51 infection [4]: suppress IFN-mediated protection; IFN-induced transcriptional activity (IFN-responsive promoter): inhibit IFN-induced transcriptional activity |
| O=c1[nH]ncc(Cl)c1Cl [MD02026, 4,5-Dichloro-2H-pyridazin-3-one] |  | enhance the production |  | can be enhanced | enhance the production | enhance adenovirus transduction | enhance Adenovirus transduction |  |
| O=C1C(Cl)=C(Cl)C(O)N1CCc1ccccc1 (stereo not drawn) [MD03009, 3,4-dichloro-5-hydroxy-1-phenethyl-1H-pyrrol-2(5H)-one] |  |  | enhance Adenovirus transduction | can be enhanced |  |  |  |  |
| O=C1C(Cl)=C(Cl)C(O)N1Cc1ccccc1 (stereo not drawn) [MD01145, α,β-dichloro-γ-hydroxy-N-benzyl-crotonic lactam] | enhance Herpes Simplex Virus type-1 (HSV-1) replication | enhance the production |  | can be enhanced | enhance the production | enhance adenovirus transduction | enhance Adenovirus transduction | dose-dependent increase in the number of revertants [9]: does not produce a dose-dependent increase; mutagenic potential [9]: not mutagenic |
| CN1C(=O)C(Cl)=C(Cl)C1O (stereo not drawn) [CM01031, 3,4-Dichloro-5-hydroxy-1-methyl-1,5-dihydro-pyrrol-2-one] |  |  |  |  |  |  |  | PR8 titers, MDCK (NBL-2) cells [10]: Enhancement of PR8; PR8 titers, MDCK.2 cells [10]: Enhancement of PR8 |
| O=C1C(Cl)=C(Cl)C(O)N1CCN1CCOCC1 (stereo not drawn) [MD03011, 3,4-dichloro-5-hydroxy-1-(2-morpholinoethyl)-1H-pyrrol-2(5H)-one] |  |  | enhance Adenovirus transduction | can be enhanced |  | enhance adenovirus transduction | enhance Adenovirus transduction | A/FM1 (H1N1) production in ovo (plaque assay titer, HA titer by HPLC AUC) (A/FM1 (H1N1)): enhances A/FM1 (H1N1) production |
| C#CCN1C(=O)C(Cl)=C(Cl)C1O (stereo not drawn) [MD01151, 3,4-Dichloro-5-hydroxy-1-prop-2-ynyl-1,5-dihydro-pyrrol-2-one] | enhance Herpes Simplex Virus type-1 (HSV-1) replication |  | enhance Adenovirus transduction | can be enhanced |  |  |  |  |
| COS(C)(=O)=O [MMS, methyl methanesulfonate, reference compound] |  |  |  |  |  |  |  | reversion rate (number of revertants) [9]: high number of revertants |
